From a melting point compilation (Tetko et al.; mined from patent text by program, amines drawn as free bases though some values may be those of a salt) come the findings set out here.

For orientation: melting point means the temperature of the solid-liquid transition. The compound `CC(CN1CCCC1)N1c2ccccc2Sc2ccc(C(N)=S)cc21` (racemic) returned a melting point of 150 °C. On to `CCC(=O)c1[nH]c(=O)[nH]c1CC`, for which the melting point is 212 to 213 °C. `Cc1[nH]c2cccc(/C=C/C(=O)OCc3ccccc3)c2c1Cc1cccnc1` registered a melting point of 180 to 182 °C. Under `O=C1CN(c2ccc(CC3NC(=O)c4ccccc4NC3=O)cc2O)S(=O)(=O)N1` (stereo not given) stands 180 °C; under `CC(NC(=O)Nc1ccc(CN2C(=O)C3CCCC3N(C(=O)CN3C(=O)c4ccccc4C3=O)c3ccccc32)cc1)c1ccccc1` (stereo not given), 156 to 160 °C; under `COCC(C)Nc1nccc(Oc2ccc(NC(=O)c3cc(F)cc(N4CCCCC4)c3)c3ccccc23)n1` (stereo not given), 94 to 95 °C.

Compound `CCOCc1cc2cccc(OC)c2oc1=O` yielded a melting point of 131 to 133 °C.

Regarding `O=S1(=O)N=C2CCCN2c2ccc(Oc3cccc(-c4ccoc4)c3)cc21`, the melting point lay in the range of 128 to 132 °C.

Take `Cc1cc(Cl)c2c(ccc3nc(C)[nH]c32)n1`: the melting point was 314 to 330 °C. As for `C=C(C)C(=O)OCCCCCCS(=O)(=O)c1ccc(O)c(C)c1`, the melting point was in the range of 84 to 85 °C. `O=C(C1CCCCC1)N1C=C2c3ccccc3CCN2C(=O)C1`: the melting point fell in the range of 136 to 138 °C. Consider `Cc1[nH]c(=O)sc1C#N`, for which the melting point lay within 180 to 181 °C. For the compound `CN1CCN(Cc2ccc(-c3cc4c(Nc5ccc6[nH]ccc6c5)c(C#N)cnc4s3)nc2)CC1`, the melting point is over 245 °C. In turn, `O=C(O)CCSCC(=O)c1cc2sc(=O)[nH]c2cc1Cl` had a melting point of 195 to 197 °C. Compound `CCOC(=O)C(C(N)=O)c1cc(OC)c(OC)c(OC)c1` (stereo not given) came in with a melting point of 93 °C. The compound `COc1ccc2c(c1)C(=O)C(Cc1ccccc1)CS2` (stereo not given) had a melting point of 66 to 68 °C. In turn, `O=Cc1ccccc1Oc1ccc(I)cc1` had a melting point of 84.5 to 86 °C. In turn, `CCC(Oc1cc(F)ccc1F)C1=NCCN1` (stereo not given) had a melting point of 110 °C. Turning to `CCC(CC)n1c(=O)ccc2cnc(Nc3ccccc3)nc21`, the melting point was in the range of 116 to 118 °C. `COc1ccc(C=CC(C)=O)cc1OC` came in with a melting point of 78 to 80 °C. `CC(C)(C)OC(=O)NNC1CCN(C(=O)OC(C)(C)C)CC1` showed a melting point of 112 to 115 °C.

As to `c1ccc2c(c1)c(-c1cc3nccnc3[nH]1)cn2CCCN1CCOCC1`, the melting point is 180 to 185 °C. Turning to `CCOC(=O)c1nn(Cc2ccc(Cl)cc2Cl)c(-c2ccc(Cl)cc2)c1C`, the melting point is 82 °C. Consider `CCN(Cc1cc(Br)ccc1OCc1ccccc1)c1ccc(-c2nnn[nH]2)cc1`, for which the melting point was 206 to 208 °C. Turning to `CCc1ccc2c(c1)C=Cc1cc(C)ccc1C2c1cn(-c2ccnc(N3CCCC3C(=O)O)n2)c(=O)[nH]c1=O` (stereo not given), the melting point is 185 °C.

In the case of `O=C(c1ccco1)N1CCN(c2cc(-c3ccccc3)c3c(n2)CCCC3)CC1`, the melting point lay within 128 to 130 °C. Under `COc1ccc(N2CCN(c3ccc(N4C(=O)C5CCCCN5C4=O)cc3)CC2)cc1` (stereo not given) stands 223 °C; under `CN(C)CCCCCCNCc1ccc(-c2cc3ncnc(Nc4ccc5[nH]ccc5c4)c3s2)cc1`, 134 to 148 °C; under `O=C(Nc1ccc2ccc(N3CCCC3)nc2n1)c1ccccc1`, 130 °C. `CC(C)c1cc2nc(N)sc2cc1SC1=C(O)C[C@@](CCc2ccccc2)(C(C)C)OC1=O` displayed a melting point of 197 to 199 °C. `CCc1c(C(=O)c2cc(C)cc(C)c2)n(C/C=C/COC(C)=O)c(=O)[nH]c1=O`: the melting point was in the range of 152 to 153 °C. As for `O=C(O)c1cccc(Oc2cccc(-c3nn(Cc4ccc(C(F)(F)P(=O)(O)O)c(F)c4)c(=Nc4ccc(Cl)c(Cl)c4)s3)c2)c1`, the melting point fell in the range of 153 to 156 °C. Under `CCn1c(=O)c2c(nc(/C=C/c3ccc(-c4ccccc4)cc3)n2C)n(CC)c1=O` stands 200 to 201 °C; under `CCNC(=O)C(=O)NCC(OCC)OCC`, 131 to 132 °C; under `O=C(O)C=Cc1ccc(O)c(Cl)c1`, 180 to 182 °C.
